Reference: US8946266B2, “Substituted triazole and imidazole derivatives as gamma secretase modulators” (Janssen Pharmaceuticals, Inc., priority 2009, dated 2015)
Where two headings read alike, the source gives them in different places.

Columns and labels:
Aβ42 = test: γ-secretase-modulating activity, Method 2: Aβ42 Alphalisa in supernatant of SKNBE2 cells carrying APP 695-wild type (Table 3b); type: cell-based; details: overnight
Procedure: (§1) Screening was carried out using SKNBE2 cells carrying the APP 695-wild type, grown in Dulbecco's Modified Eagle's Medium/Nutrient mixture F-12 (DMEM/NUT-mix F-12) (HAM) provided by Invitrogen (cat no. 10371-029) containing 5% Serum/Fe supplemented with 1% non-essential amino acids, 1-glutamine 2 mM, Hepes 15 mM, penicillin 50 U/ml (units/ml) en streptomycin 50 μg/ml. Cells were grown to near confluency.
(§2) The screening was performed using a modification of the assay as described in Citron et al (1997) Nature Medicine 3: 67. Briefly, cells were plated in a 384-well plate at 10^4 cells/well in Ultraculture (Lonza, BE12-725F) supplemented with 1% glutamine (Invitrogen, 25030-024), 1% non-essential amino acid (NEAA), penicillin 50 U/ml en streptomycin 50 μg/ml in the presence of test compound at different test concentrations. The cell/compound mixture was incubated overnight at 37° C., 5% CO2. The next day the media were assayed by two sandwich immuno-assays, for Aβ42 and Aβtotal.
(§3) Aβtotal and Aβ42 concentrations were quantified in the cell supernatant using the Aphalisa technology (Perkin Elmer). Alphalisa is a sandwich assay using biotinylated antibody attached to streptavidin coated donorbeads and antibody conjugated to acceptor beads. In the presence of antigen, the beads come into close proximity. The excitation of the donor beads provokes the release of singlet oxygen molecules that trigger a cascade of energy transfer in the acceptor beads, resulting in light emission. To quantify the amount of Aβ42 in the cell supernatant, monoclonal antibody specific to the C-terminus of Aβ42 (JRF/cAβ42/26) was coupled to the receptor beads and biotinylated antibody specific to the N-terminus of Aβ (JRF/AβN/25) was used to react with the donor beads. To quantify the amount of Aβ total in the cell supernatant, monoclonal antibody specific to the N-terminus of Aβ (JRF/AβN/25) was coupled to the receptor beads and biotinylated antibody specific to the mid region of Aβ (biotinylated 4G8) was used to react with the donor beads.
To obtain the values reported in Table 3b, the data were calculated as percentage of the maximum amount of amyloid Beta 42 measured in the absence of the test compound.
(§4) The sigmoidal dose response curves were analyzed using non-linear regression analysis with percentage of the control plotted against the log concentration of the compound. A 4-parameter equation was used to determine the IC50.
(§5) The IC50 values are shown in Table 3b (Aβtot means Aβtotal).

Aβtotal = test: γ-secretase-modulating activity, Method 2: Aβtotal Alphalisa in supernatant of SKNBE2 cells carrying APP 695-wild type (Table 3b); type: cell-based; details: overnight, read-out: IC50 Aβtot
Procedure: as §1, §2, §3, §4, §5

Row | IC50 (Aβ42) [µM] | IC50 (Aβtotal) [µM] | IC50 (Aβ42; Homo sapiens) [µM] | IC50 (Aβtotal; Homo sapiens) [µM] | Structure (SMILES)
1 | 0.479 | > 10 | – | – | COc1cc(-c2nc(Cc3ccc(F)cc3)n(C)n2)ccc1-n1cnc(C)c1 [Compound 22]
2 | 0.933 | > 10 | – | – | CNc1nc(-c2ccc(-n3cnc(C)c3)c(OC)n2)nn1-c1cccc(C(F)(F)F)c1 [Compound 92]
3 | 0.38 | > 10 | – | – | COc1cc(-c2nc3n(n2)CCOC3c2ccc(F)cc2F)ccc1-n1cnc(C)c1 (stereo not shown) [Compound 282]
4 | 0.132 | > 10 | – | – | COc1cc(-c2nc(Nc3ccnc(C(F)(F)F)c3)n(C)n2)ccc1-n1cnc(C)c1 [Compound 235]
5 | 0.288 | > 10 | – | – | COc1cc(-c2nc(-c3cc(C(F)(F)F)ccc3C)n(C)n2)ccc1-n1cnc(C)c1 [Compound 72]
6 | 0.021 | 7.94 | – | – | COc1cc(-c2nc(Nc3cc(C(F)(F)F)ccc3F)n(C(C)C)n2)ccc1-n1cnc(C)c1 [Compound 178]
7 | 4.47 | > 10 | – | – | COc1cc(-c2nc(Nc3ccc(F)cc3C#N)n(C)n2)ccc1-n1cnc(C)c1 [Compound 228]
8 | 0.129 | > 10 | – | – | COc1cc(-c2nc3n(n2)CCCC3c2ccccc2C(F)(F)F)ccc1-n1cnc(C)c1 (stereo not shown) [Compound 336]
9 | 0.759 | > 10 | – | – | COCCn1nc(-c2ccc(-n3cnc(C)c3)c(OC)c2)nc1-c1ccccc1Cl [Compound 87]
10 | 0.162 | > 10 | – | – | COc1nc(-c2nc3n(n2)CCC[C@@H]3c2cc(C(F)(F)F)ccc2C)ccc1-n1cnc(C)c1 [Compound 342]
11 | 1.32 | > 10 | – | – | COc1cc(-c2nc(Nc3ccccc3C(C)=O)n(C)n2)ccc1-n1cnc(C)c1 [Compound 324]
12 | 0.056 | 5.89 | – | – | COc1cc(-c2nc(Nc3ccc4c(c3)OC(F)(F)O4)n(C)n2)ccc1-n1cnc(C)c1 [Compound 231]
13 | 0.129 | 9.12 | – | – | COc1cc(-c2nc(Nc3ccc(F)c(F)c3)n(C)n2)ccc1-n1cnc(C)c1 [Compound 112]
14 | 0.178 | > 10 | – | – | COc1cc(Cl)ccc1Nc1nc(-c2ccc(-n3cnc(C)c3)c(OC)c2)nn1C [Compound 188]
15 | 0.026 | > 10 | – | – | CCn1nc(-c2ccc(-n3cnc(C)c3)c(OC)c2)nc1Nc1cc(C(F)(F)F)ccc1F [Compound 135]
16 | 2.34 | > 10 | – | – | COc1cc(-c2nc3c(-c4ccccc4)nccn3n2)ccc1-n1cnc(C)c1 [Compound 292]
17 | – | – | 0.17 | > 10 | COc1cc(-c2nc(-c3ccc(F)cc3)n(C(C)C)n2)ccc1-n1cnc(C)c1 [Compound 5]
18 | 1.7 | > 10 | – | – | COc1cc(-c2nc(Nc3cc(C(=O)N(C)C)ccc3F)n(C)n2)ccc1-n1cnc(C)c1 [Compound 308]
19 | 0.1 | > 10 | – | – | CCOc1ccccc1Nc1nc(-c2ccc(-n3cnc(C)c3)c(OC)c2)nn1C [Compound 205]

Row | IC50 (Aβ42) [µM] | IC50 (Aβtotal) [µM] | IC50 (Aβ42; Homo sapiens) [µM] | IC50 (Aβtotal; Homo sapiens) [µM] | Structure (SMILES)
20 | 0.05 | 8.51 | – | – | COc1cc(-c2nc(N3CCCC(c4ccccc4)C3)n(C)n2)ccc1-n1cnc(C)c1 (racemic) [Compound 78]
21 | 4.27 | > 10 | – | – | COc1cc(-c2nc(-c3cccc(C(F)(F)F)c3)nn2C)ccc1-n1cnc(C)c1 [Compound 8]
22 | 0.288 | > 10 | – | – | Cc1cn(-c2ccc(-c3nc(Nc4ccccc4C)n(C)n3)cc2OC(F)(F)F)cn1 [Compound 98]
23 | 0.06 | > 10 | – | – | COc1cc(-c2nc(Nc3cc(F)ccc3C)n(C)n2)ccc1-n1cnc(C)c1 [Compound 173]
24 | 0.11 | > 10 | – | – | COc1cc(-c2nc(N(C)c3ccc(F)cc3C(F)(F)F)n(C)n2)ccc1-n1cnc(C)c1 [Compound 50]
25 | 0.166 | 8.13 | – | – | Cc1cn(-c2ccc(-c3nc(Nc4cccc(C(F)(F)F)c4)n(C)n3)cc2)cn1 [Compound 206]
26 | 0.646 | > 10 | – | – | COc1cc(-c2nc(NCc3ccccc3)n(C)n2)ccc1-n1cnc(C)c1 [Compound 245]
27 | 1.26 | > 10 | – | – | COc1nc(-c2nc(C)n(C(C)c3ccc(F)cc3)n2)ccc1-n1cnc(C)c1 (racemic) [Compound 69]
28 | – | – | 2.34 | > 10 | COc1cc(-c2nc(C(=O)c3cccc(C(F)(F)F)c3)n(C(C)C)n2)ccc1-n1cnc(C)c1 [Compound 91]
29 | 0.234 | > 10 | – | – | COc1cc(-c2nc3n(n2)CCC[C@@H]3c2ccccc2Cl)ccc1-n1cnc(C)c1 [Compound 254]
30 | 0.012 | 7.76 | – | – | COc1cc(-c2nc3n(n2)CCC[C@H]3c2cc(C(F)(F)F)ccc2C)ccc1-n1cnc(C)c1 [Compound 341]
31 | – | – | 0.126 | > 10 | COc1cc(-c2nc(Nc3cc(C(C)=O)ccc3F)n(C)n2)ccc1-n1cnc(C)c1 [Compound 223]
32 | 0.195 | > 10 | – | – | COc1cc(-c2nc(-c3ccccc3Cl)n(CC(F)(F)F)n2)ccc1-n1cnc(C)c1 [Compound 86]
33 | 0.049 | > 10 | – | – | COc1cc(-c2nc3n(n2)CCCC3c2cccc(OC(F)(F)F)c2)ccc1-n1cnc(C)c1 (stereo not shown) [Compound 267]
34 | 0.06 | > 10 | – | – | COc1cc(-c2nc(Nc3cc(F)ccc3Cl)n(C)n2)ccc1-n1cnc(C)c1 [Compound 113]
35 | 0.033 | > 10 | – | – | COc1cc(-c2nc(Nc3ccc(Cl)cc3C(F)(F)F)n(C)n2)ccc1-n1cnc(C)c1 [Compound 156]
36 | 0.052 | > 10 | – | – | COc1cc(-c2nc3n(n2)CCCC3c2ccccc2C)ccc1-n1cnc(C)c1 (stereo not shown) [Compound 344]
37 | 0.063 | > 10 | – | – | COc1cc(F)c(C(F)(F)F)cc1Nc1nc(-c2ccc(-n3cnc(C)c3)c(OC)c2)nn1C [Compound 220]
38 | 2.24 | > 10 | – | – | COc1cc(-c2ncn(-c3cccc(C(F)(F)F)c3)n2)ccc1-n1cnc(C)c1 [Compound 65]

Row | IC50 (Aβ42) [µM] | IC50 (Aβtotal) [µM] | IC50 (Aβ42; Homo sapiens) [µM] | IC50 (Aβtotal; Homo sapiens) [µM] | Structure (SMILES)
39 | 0.2 | 9.55 | – | – | COc1cc(-c2nc(-c3cc(C(F)(F)F)ccc3C)n(C(C)C)n2)ccc1-n1cnc(C)c1 [Compound 73]
40 | 4.47 | > 10 | – | – | COc1cc(-c2nc(Nc3ccnc(C)c3)n(C)n2)ccc1-n1cnc(C)c1 [Compound 239]
41 | 0.013 | > 10 | – | – | COc1cc(-c2nc(Nc3cc(Cl)ccc3OC(F)(F)F)n(C)n2)ccc1-n1cnc(C)c1 [Compound 183]
42 | 0.417 | > 10 | – | – | COc1cc(-c2nc(Nc3cc(C#N)ccc3F)n(C)n2)ccc1-n1cnc(C)c1 [Compound 226]
43 | 0.309 | > 10 | – | – | COc1cc(-c2nc(-c3ccccc3Cl)n(CC3CC3)n2)ccc1-n1cnc(C)c1 [Compound 85]
44 | 0.661 | > 10 | – | – | COc1cc(-c2nc3n(n2)CCOC3c2ccccc2C(F)(F)F)ccc1-n1cnc(C)c1 (stereo not shown) [Compound 316]
45 | 0.148 | > 10 | – | – | COc1cc(-c2nc3n(n2)CCCC3c2ccccc2F)ccc1-n1cnc(C)c1 (stereo not shown) [Compound 257]
46 | 0.095 | > 10 | – | – | COc1ccc(F)c(Nc2nc(-c3ccc(-n4cnc(C)c4)c(OC)c3)nn2C)c1 [Compound 195]
47 | – | – | 0.162 | > 10 | COc1cc(-c2nc(C)n(-c3ccccc3C(F)(F)F)n2)ccc1-n1cnc(C)c1 [Compound 19]
48 | – | – | 0.282 | > 10 | CNc1nc(-c2ccc(-n3cnc(C)c3)c(OC)c2)nn1-c1cccc(C(F)(F)F)c1 [Compound 93]
49 | 0.245 | 6.92 | – | – | COc1cc(-c2nc(Nc3cc(F)c(F)c(F)c3)n(C)n2)ccc1-n1cnc(C)c1 [Compound 48]
50 | 0.047 | > 10 | – | – | COc1cc(-c2nc(Nc3cc(F)c(C(F)(F)F)cc3F)n(C)n2)ccc1-n1cnc(C)c1 [Compound 141]
51 | 0.708 | > 10 | – | – | COc1cc(-c2nc(Nc3cc(NC(C)=O)ccc3F)n(C)n2)ccc1-n1cnc(C)c1 [Compound 221]
52 | 0.11 | > 10 | – | – | COc1cc(-c2nc(Nc3ccc(C(F)(F)F)cc3F)n(C)n2)ccc1-n1cnc(C)c1 [Compound 134]
53 | 1.07 | > 10 | – | – | COc1cc(-c2nc(Nc3cc(S(C)(=O)=O)ccc3F)n(C)n2)ccc1-n1cnc(C)c1 [Compound 309]
54 | 0.021 | > 10 | – | – | COc1cc(-c2nc(Nc3cc(F)cc(C(F)(F)F)c3)n(C)n2)ccc1-n1cnc(C)c1 [Compound 159]
55 | 1.58 | > 10 | – | – | COc1cc(-c2nc(Nc3ccc(C)nc3)n(C)n2)ccc1-n1cnc(C)c1 [Compound 238]
56 | 0.03 | > 10 | – | – | COc1cc(-c2nc(Nc3cccc(C(F)(F)F)c3C)n(C)n2)ccc1-n1cnc(C)c1 [Compound 164]
